Measured values published in patent US20080242688A1, “Method 741” (ASTRAZENECA AB, priority 2007, published 2008).

Experiments:
human hepatocytes = assay: Human hepatocyte incubations; assay type: in vitro ADME; details: four separate batches of human hepatocytes
Description: Pyridinyl methylation of AZD0328 was a unique polar metabolite (M2) observed in dog hepatocytes. Other minor hydroxylation/oxidation and glucuronide conjugation products were detected in monkey, dog, rat, and guinea pig hepatocyte incubations and mini-pig hepatic microsome incubations. […] Analysis of plasma and urine samples from either orally or iv dosed rats confirmed N-oxide product of AZD0328 was a main product in the excretion and circulation. The percentage of AZD0328 N-oxide in the plasma from male rats was much higher than from females.

[1] = Single oral dose pharmacokinetics in healthy human volunteers; assay type: in vivo; set-up: AUC/dose: unit not given beside the values; details: for Cmax / Tmax / AUC / AUC(0-t) / half-life: human, plasma; for Cmax / AUC / AUC(0-t) / half-life / Cmax/Dose / AUC/dose / CL/F: geometric mean; for Tmax: median
Description: Total oral doses of AZD0328 in the range 0.025-0.68 mg produced mean plasma concentrations of 0.6-15 nM, consistent with the range of plasma concentrations found to be associated with improved performance in the spatial delayed response test in monkeys. Total oral doses of AZD0328 in the range 0.005-2 mg produced mean plasma concentrations of 0.17-43.9 nM, within the range of plasma concentrations found to be associated with improved performance in rodent models.

[2] = biological target: serotonergic 5-HT3 receptor (Homo sapiens, UniProt P46098); assay: Selectivity panel, radioligand binding; details: read-out: inhibition of specific radioligand binding
serotonergic 5-HT3 receptor, sequence (P46098 24-478): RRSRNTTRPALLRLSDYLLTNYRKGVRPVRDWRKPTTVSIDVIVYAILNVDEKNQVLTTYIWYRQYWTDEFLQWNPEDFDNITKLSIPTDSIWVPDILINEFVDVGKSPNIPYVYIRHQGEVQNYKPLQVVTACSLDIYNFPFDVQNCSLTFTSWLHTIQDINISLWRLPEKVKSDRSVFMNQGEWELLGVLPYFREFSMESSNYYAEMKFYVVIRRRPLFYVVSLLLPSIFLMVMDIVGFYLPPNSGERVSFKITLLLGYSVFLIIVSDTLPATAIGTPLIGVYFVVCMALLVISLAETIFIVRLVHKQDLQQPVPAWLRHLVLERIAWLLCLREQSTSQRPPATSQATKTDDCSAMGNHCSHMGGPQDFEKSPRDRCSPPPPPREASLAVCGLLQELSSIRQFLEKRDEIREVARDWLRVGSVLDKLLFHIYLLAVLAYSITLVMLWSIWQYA
Description: (§1) Secondary effects of AZD0328 on targets other than the α7 nicotinic acetylcholine receptor (nAChR) were investigated in vitro. Selectivity against a broad panel of 129 receptors, ion channels, nuclear hormone receptors, transporters and enzymes was tested using radioligand binding assays (Report no. GPW003).

[3] = system: central nicotinic receptors; assay: Selectivity panel, radioligand binding; details: 10 μM
Description: as §1

adrenergic α2B receptor = adrenergic α2B receptor (Homo sapiens, UniProt P18089); assay: Selectivity panel, radioligand binding; details: read-out: inhibition of specific radioligand binding
adrenergic α2B receptor, sequence (P18089 whole entry): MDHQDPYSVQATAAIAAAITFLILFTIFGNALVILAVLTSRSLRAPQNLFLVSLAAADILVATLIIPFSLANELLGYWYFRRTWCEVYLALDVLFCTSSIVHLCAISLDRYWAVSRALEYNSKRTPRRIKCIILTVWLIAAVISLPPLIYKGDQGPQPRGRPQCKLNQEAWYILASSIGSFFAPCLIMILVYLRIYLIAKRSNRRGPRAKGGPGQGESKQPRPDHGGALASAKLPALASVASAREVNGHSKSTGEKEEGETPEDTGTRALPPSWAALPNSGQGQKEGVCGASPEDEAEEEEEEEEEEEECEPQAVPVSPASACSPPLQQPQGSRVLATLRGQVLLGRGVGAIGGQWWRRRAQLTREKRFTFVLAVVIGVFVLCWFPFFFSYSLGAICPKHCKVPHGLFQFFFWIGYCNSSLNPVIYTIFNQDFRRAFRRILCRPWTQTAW
Description: as §1

muscarinic M5 receptor = muscarinic M5 receptor (Homo sapiens, UniProt P08912); assay: Selectivity panel, radioligand binding; details: read-out: inhibition of specific radioligand binding
muscarinic M5 receptor, sequence (P08912 whole entry): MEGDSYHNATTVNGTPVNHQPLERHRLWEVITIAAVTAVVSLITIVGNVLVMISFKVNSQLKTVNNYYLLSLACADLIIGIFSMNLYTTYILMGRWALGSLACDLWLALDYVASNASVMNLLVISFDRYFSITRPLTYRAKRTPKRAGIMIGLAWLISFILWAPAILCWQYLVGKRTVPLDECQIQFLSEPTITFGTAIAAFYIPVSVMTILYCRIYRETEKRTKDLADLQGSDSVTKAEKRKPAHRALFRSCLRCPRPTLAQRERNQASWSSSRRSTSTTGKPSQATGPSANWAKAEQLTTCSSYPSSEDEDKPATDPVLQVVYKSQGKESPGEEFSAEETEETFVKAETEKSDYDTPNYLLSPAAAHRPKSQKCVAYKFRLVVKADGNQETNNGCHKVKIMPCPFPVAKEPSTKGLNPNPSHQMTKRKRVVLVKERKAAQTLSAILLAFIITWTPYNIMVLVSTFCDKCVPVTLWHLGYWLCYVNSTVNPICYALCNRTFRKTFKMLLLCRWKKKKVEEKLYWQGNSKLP
Description: as §1

muscarinic M3 receptor = muscarinic M3 receptor (Homo sapiens, UniProt P20309); assay: Selectivity panel, radioligand binding; details: read-out: inhibition of specific radioligand binding
muscarinic M3 receptor, sequence (P20309 whole entry): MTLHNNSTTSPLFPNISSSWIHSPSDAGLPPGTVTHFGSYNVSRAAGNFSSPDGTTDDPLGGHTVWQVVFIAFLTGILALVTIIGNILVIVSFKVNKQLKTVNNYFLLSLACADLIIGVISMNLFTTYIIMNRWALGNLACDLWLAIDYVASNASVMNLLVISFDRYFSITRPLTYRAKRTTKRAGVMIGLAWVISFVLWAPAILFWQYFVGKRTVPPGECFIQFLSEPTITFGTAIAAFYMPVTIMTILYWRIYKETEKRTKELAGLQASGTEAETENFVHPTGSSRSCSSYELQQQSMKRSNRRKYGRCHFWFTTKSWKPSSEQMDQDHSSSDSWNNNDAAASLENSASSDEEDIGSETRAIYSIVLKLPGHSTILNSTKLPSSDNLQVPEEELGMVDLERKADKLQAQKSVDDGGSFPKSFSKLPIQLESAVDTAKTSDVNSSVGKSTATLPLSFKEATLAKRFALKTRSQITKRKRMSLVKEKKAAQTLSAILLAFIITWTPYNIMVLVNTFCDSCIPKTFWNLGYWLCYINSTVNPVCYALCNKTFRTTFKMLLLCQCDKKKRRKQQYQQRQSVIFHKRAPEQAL
Description: as §1

**Q.** What does the source list for `c1cnc2c(c1)C[C@@]1(CN3CCC1CC3)O2` [AZD0328, (R)-Spiro[1-azabicyclo[2.2.2]octane-3,2′(3′H)-furo[2,3-b]pyridine]]?
**A.** metabolites in human hepatocyte incubations (human hepatocytes): no metabolites were detected; Cmax ([1]; single oral dose 0.005 mg): 0.17 nM; Tmax ([1]; single oral dose 0.005 mg): 0.8 h; AUC ([1]; single oral dose 0.025 mg): 0.0061 µM·h; AUC(0-t) ([1]; single oral dose 0.025 mg): 0.0046 µM·h; Cmax ([1]; single oral dose 0.025 mg): 0.6 nM; half-life ([1]; single oral dose 0.025 mg): 6.3 h; Tmax ([1]; single oral dose 0.025 mg): 1.3 h; AUC ([1]; single oral dose 0.075 mg): 0.0169 µM·h; AUC(0-t) ([1]; single oral dose 0.075 mg): 0.0156 µM·h; Cmax ([1]; single oral dose 0.075 mg): 2.1 nM; half-life ([1]; single oral dose 0.075 mg): 5.9 h; Tmax ([1]; single oral dose 0.075 mg): 1.5 h; AUC ([1]; single oral dose 0.23 mg): 0.0652 µM·h; AUC(0-t) ([1]; single oral dose 0.23 mg): 0.0588 µM·h; Cmax ([1]; single oral dose 0.23 mg): 6.4 nM; half-life ([1]; single oral dose 0.23 mg): 6.7 h; Tmax ([1]; single oral dose 0.23 mg): 1.5 h; AUC ([1]; single oral dose 0.68 mg): 0.144 µM·h; AUC(0-t) ([1]; single oral dose 0.68 mg): 0.133 µM·h; Cmax ([1]; single oral dose 0.68 mg): 15 nM; half-life ([1]; single oral dose 0.68 mg): 6 h; Tmax ([1]; single oral dose 0.68 mg): 2.2 h; AUC ([1]; single oral dose 1.35 mg): 0.333 µM·h; AUC(0-t) ([1]; single oral dose 1.35 mg): 0.3 µM·h; Cmax ([1]; single oral dose 1.35 mg): 31 nM; half-life ([1]; single oral dose 1.35 mg): 6.9 h; Tmax ([1]; single oral dose 1.35 mg): 3.2 h; AUC ([1]; single oral dose 2 mg): 0.421 µM·h; AUC(0-t) ([1]; single oral dose 2 mg): 0.395 µM·h; Cmax ([1]; single oral dose 2 mg): 43.9 nM; half-life ([1]; single oral dose 2 mg): 5.6 h; Tmax ([1]; single oral dose 2 mg): 2.5 h; Cmax/Dose ([1]; single oral dose 0.005 mg): 0.007; AUC/dose ([1]; single oral dose 0.025 mg): 0.053; CL/F ([1]; single oral dose 0.025 mg): 19.0 L/h; Cmax/Dose ([1]; single oral dose 0.025 mg): 0.006; AUC/dose ([1]; single oral dose 0.075 mg): 0.049; CL/F ([1]; single oral dose 0.075 mg): 20.5 L/h; Cmax/Dose ([1]; single oral dose 0.075 mg): 0.006; AUC/dose ([1]; single oral dose 0.23 mg): 0.061; CL/F ([1]; single oral dose 0.23 mg): 16.3 L/h; Cmax/Dose ([1]; single oral dose 0.23 mg): 0.006; AUC/dose ([1]; single oral dose 0.68 mg): 0.046; CL/F ([1]; single oral dose 0.68 mg): 21.9 L/h; Cmax/Dose ([1]; single oral dose 0.68 mg): 0.005; AUC/dose ([1]; single oral dose 1.35 mg): 0.054; CL/F ([1]; single oral dose 1.35 mg): 18.7 L/h; Cmax/Dose ([1]; single oral dose 1.35 mg): 0.005; AUC/dose ([1]; single oral dose 2 mg): 0.046; CL/F ([1]; single oral dose 2 mg): 22.0 L/h; Cmax/Dose ([1]; single oral dose 2 mg): 0.005; mean plasma concentrations ([1]; total oral doses 0.005-2 mg): 0.17 to 43.9 nM; mean plasma concentrations ([1]; total oral doses 0.025-0.68 mg): 0.6 to 15 nM; inhibition at 10 µM [2]: > 50%; inhibition of specific radioligand binding [3]: > 50%; inhibition at 10 µM (adrenergic α2B receptor): > 50%; inhibition at 10 µM (muscarinic M5 receptor): > 50%; inhibition at 10 µM (muscarinic M3 receptor): > 50%
